Measurements from ChEMBL document CHEMBL1201862, “PubChem BioAssay data set” (2004).
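Cells were grown in 96-well plates and exposed to each compound for 48 hours at five concentrations; endpoints were interpolated linearly between bracketing concentrations, or set to the highest concentration if not reached. GI50: concentration for 50% inhibition of growth.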 Calls of active or inactive are those of the source. No stated cut-off is given here; in the data, active = GI50 up to about 1.1 µM and inactive = higher.

Legend:
Test in all cases: NCI tumour cell line growth inhibition, 48 h
SW-620 = test system: SW-620
Malme-3M = test system: Malme-3M
NCI-H226 = test system: NCI-H226
OVCAR-4 = test system: OVCAR-4
BT-549 = test system: BT-549
A498 = test system: A498
RXF 393 = test system: RXF 393
NCI-H460 = test system: NCI-H460
DU-145 = test system: DU-145
HCT-15 = test system: HCT-15
A549 = test system: A549
HL-60 = test system: HL-60
OVCAR-3 = test system: OVCAR-3
U-251 = test system: U-251
OVCAR-8 = test system: OVCAR-8
MDA-MB-231 = test system: MDA-MB-231
UACC-257 = test system: UACC-257
NCI-H23 = test system: NCI-H23
K562 = test system: K562
PC-3 = test system: PC-3
SF-295 = test system: SF-295
SNB-19 = test system: SNB-19
HOP-62 = test system: HOP-62
RPMI-8226 = test system: RPMI-8226
786-0 = test system: 786-0
CCRF-CEM = test system: CCRF-CEM
Hs-578T = test system: Hs-578T
MCF7 = test system: MCF7
COLO 205 = test system: COLO 205
HOP-92 = test system: HOP-92
SK-MEL-5 = test system: SK-MEL-5
OVCAR-5 = test system: OVCAR-5
ACHN = test system: ACHN
SK-OV-3 = test system: SK-OV-3
SF-268 = test system: SF-268
MOLT-4 = test system: MOLT-4
SK-MEL-28 = test system: SK-MEL-28
UO-31 = test system: UO-31
UACC-62 = test system: UACC-62
IGROV-1 = test system: IGROV-1
HT-29 = test system: HT-29
HCT-116 = test system: HCT-116
EKVX = test system: EKVX
SN12C = test system: SN12C
T47D = test system: T47D
KM12 = test system: KM12
SF-539 = test system: SF-539
M14 = test system: M14
SR = test system: SR
LOX IMVI = test system: LOX IMVI
MDA-N = test system: MDA-N
CAKI-1 = test system: CAKI-1
HCC 2998 = test system: HCC 2998
MDA-MB-435 = test system: MDA-MB-435
NCI/ADR-RES = test system: NCI/ADR-RES
TK-10 = test system: TK-10
SK-MEL-2 = test system: SK-MEL-2
NCI-H522 = test system: NCI-H522
SNB-75 = test system: SNB-75

C=CC(=O)N1C/C(=C\c2ccc([N+](=O)[O-])cc2)C(=O)/C(=C/c2ccc([N+](=O)[O-])cc2)C1
GI50 (SW-620): 0.0304 µM (active) | GI50 (Malme-3M): 0.201 µM (active) | GI50 (NCI-H226): 0.2 µM (active) | GI50 (OVCAR-4): 0.233 µM (active) | GI50 (BT-549): 0.194 µM (active) | GI50 (A498): 0.28 µM (active) | GI50 (RXF 393): 0.142 µM (active) | GI50 (NCI-H460): 0.147 µM (active) | GI50 (DU-145): 0.621 µM (active) | GI50 (HCT-15): 0.0253 µM | GI50 (A549): 0.427 µM (active) | GI50 (HL-60): > 100 µM (inactive) | GI50 (OVCAR-3): 0.132 µM (active) | GI50 (U-251): 0.0697 µM (active) | GI50 (OVCAR-8): < 0.0391 µM (active) | GI50 (MDA-MB-231): 0.161 µM (active) | GI50 (UACC-257): 0.794 µM (active) | GI50 (NCI-H23): 0.256 µM (active) | GI50 (K562): 0.0982 µM (active) | GI50 (PC-3): 0.0698 µM (active) | GI50 (SF-295): 0.208 µM (active) | GI50 (SNB-19): 1.16 µM (inactive) | GI50 (HOP-62): 0.222 µM (active) | GI50 (RPMI-8226): 0.0193 µM (active) | GI50 (786-0): < 0.0203 µM (active) | GI50 (CCRF-CEM): 0.0565 µM (active) | GI50 (Hs-578T): < 0.0422 µM (active) | GI50 (MCF7): < 0.0243 µM (active) | GI50 (COLO 205): 0.0483 µM (active) | GI50 (HOP-92): 0.811 µM (active) | GI50 (SK-MEL-5): 0.719 µM (active) | GI50 (OVCAR-5): 0.29 µM (active) | GI50 (ACHN): 0.16 µM (active) | GI50 (SK-OV-3): 1.52 µM (inactive) | GI50 (SF-268): < 0.0403 µM (active) | GI50 (MOLT-4): 0.0791 µM (active) | GI50 (SK-MEL-28): 0.275 µM (active) | GI50 (UO-31): 0.147 µM (active) | GI50 (UACC-62): 0.21 µM (active) | GI50 (IGROV-1): 0.0728 µM (active) | GI50 (HT-29): < 0.0176 µM (active) | GI50 (HCT-116): < 0.017 µM (active) | GI50 (EKVX): 0.243 µM (active) | GI50 (SN12C): 0.195 µM (active) | GI50 (T47D): 0.419 µM (active) | GI50 (KM12): 0.175 µM (active) | GI50 (SF-539): < 0.019 µM (active) | GI50 (M14): 0.19 µM (active) | GI50 (SR): 0.289 µM (active) | GI50 (LOX IMVI): < 0.0179 µM (active) | GI50 (MDA-N): 0.169 µM (active) | GI50 (CAKI-1): 0.128 µM (active) | GI50 (HCC 2998): 0.161 µM (active) | GI50 (MDA-MB-435): 0.254 µM (active) | GI50 (NCI/ADR-RES): 0.258 µM (active) | GI50 (TK-10): 0.713 µM (active) | GI50 (SK-MEL-2): 0.43 µM (active)

Nc1nc(N)nc(CCCc2nc(N)nc(N)n2)n1
GI50 (SW-620): > 100 µM (inactive) | GI50 (Malme-3M): > 100 µM (inactive) | GI50 (NCI-H226): > 100 µM (inactive) | GI50 (OVCAR-4): > 100 µM (inactive) | GI50 (BT-549): > 100 µM (inactive) | GI50 (NCI-H522): > 100 µM (inactive) | GI50 (A498): > 100 µM (inactive) | GI50 (RXF 393): > 100 µM (inactive) | GI50 (NCI-H460): > 100 µM (inactive) | GI50 (DU-145): > 100 µM (inactive) | GI50 (HCT-15): > 100 µM | GI50 (A549): > 100 µM (inactive) | GI50 (HL-60): > 100 µM (inactive) | GI50 (OVCAR-3): > 100 µM (inactive) | GI50 (U-251): > 100 µM (inactive) | GI50 (OVCAR-8): > 100 µM (inactive) | GI50 (MDA-MB-231): > 100 µM (inactive) | GI50 (UACC-257): > 100 µM (inactive) | GI50 (NCI-H23): > 100 µM (inactive) | GI50 (K562): > 100 µM (inactive) | GI50 (PC-3): > 100 µM (inactive) | GI50 (SF-295): > 100 µM (inactive) | GI50 (SNB-19): > 100 µM (inactive) | GI50 (HOP-62): > 100 µM (inactive) | GI50 (SNB-75): > 100 µM (inactive) | GI50 (RPMI-8226): > 100 µM (inactive) | GI50 (786-0): > 100 µM (inactive) | GI50 (CCRF-CEM): > 100 µM (inactive) | GI50 (Hs-578T): > 100 µM (inactive) | GI50 (MCF7): > 100 µM (inactive) | GI50 (COLO 205): > 100 µM (inactive) | GI50 (HOP-92): > 100 µM (inactive) | GI50 (SK-MEL-5): > 100 µM (inactive) | GI50 (OVCAR-5): > 100 µM (inactive) | GI50 (ACHN): > 100 µM (inactive) | GI50 (SK-OV-3): > 100 µM (inactive) | GI50 (SF-268): > 100 µM (inactive) | GI50 (MOLT-4): > 100 µM (inactive) | GI50 (SK-MEL-28): > 100 µM (inactive) | GI50 (UO-31): > 100 µM (inactive) | GI50 (UACC-62): > 100 µM (inactive) | GI50 (IGROV-1): > 100 µM (inactive) | GI50 (HT-29): > 100 µM (inactive) | GI50 (HCT-116): > 100 µM (inactive) | GI50 (EKVX): > 100 µM (inactive) | GI50 (SN12C): > 100 µM (inactive) | GI50 (T47D): > 100 µM (inactive) | GI50 (KM12): > 100 µM (inactive) | GI50 (SF-539): > 100 µM (inactive) | GI50 (M14): > 100 µM (inactive) | GI50 (SR): > 100 µM (inactive) | GI50 (LOX IMVI): > 100 µM (inactive) | GI50 (MDA-N): > 100 µM (inactive) | GI50 (CAKI-1): > 100 µM (inactive) | GI50 (MDA-MB-435): > 100 µM (inactive) | GI50 (NCI/ADR-RES): > 100 µM (inactive) | GI50 (TK-10): > 100 µM (inactive) | GI50 (SK-MEL-2): > 100 µM (inactive)
